Square brackets hold non-standard residues; d marks the D form. * marks the point of attachment. Myristoyl = CCCCCCCCCCCCCC(=O)*
Assays:
[1] = test system: nutritionally induced type 2 diabetes in Psammomys obesus; assay: Nutritionally induced diabetes in Psammomys obesus model: whole blood glucose by glucometer; format: in vivo; conditions: diabetic Psammomys on high energy diet; three intraperitoneal injections of 10 mg/kg, 5 days apart
Method: Psammomys obesus gerbils males or females weighing 160-200 g in the fed state were used. […] The animals were then injected intraperitoneally with 10 mg/kg of the peptide dissolved in dimethylsulphoxide solvent (or with solvent alone in controls). […] Whole blood glucose was measured by a glucometer on a minidroplet of blood withdrawn from the end of the tail. Three injections were given 5 days apart and after 14 days or earlier the high blood glucose levels of the animals became normal, the controls remained at the 300-400 mg/dl level. The normal level lasted at least for 3 to 5 days after the last injection. […] The line with asterisk represents the control animal. Other lines are those of individual injected animals.

pancreatic beta cells = assay: Histology (hematoxylin-eosin) and insulin immunostaining of pancreatic beta cells; format: in vivo, Psammomys obesus; conditions: diabetic Psammomys, peptide treatment for 14 days
Method: For assaying the insulin signaling pathway components and electronmicroscopic examination of the pancreatic beta cells, animals were killed by decapitation in the fed state in the morning three days after the third intraperitoneal peptide injection. Blood was collected and serum insulin levels was determined by radioimmunoassay, using anti-human antibodies. The gastrocnemius muscles from both legs were excised, immediately frozen in liquid nitrogen, and then stored at −80° C. The electronmicroscopic examination of pancreatic beta cells was performed on slices of pancreatic paraffin blocks according to the method of Joins et al., 2002, Virchovs Arch 440: 63-69. The histologic and immunostaining properties of the pancreatic beta cells in diabetic Psammomys gerbils injected with peptide 12 were investigated in order to check whether the beta cells are protected from hyperglycemia. […] FIGS. 5A and 5B describe representative hematoxylin-eosin stained beta cell and insulin immunostained beta cells in diabetic and treated animals.

[2] = test system: serine phosphorylation of IRS by PKC; assay: Immunoblot of serine phosphorylation of IRS in muscle lysates; format: in vivo, Psammomys obesus; conditions: treated vs non-treated animal
Method: (§1) For assaying the insulin signaling pathway components and electronmicroscopic examination of the pancreatic beta cells, animals were killed by decapitation in the fed state in the morning three days after the third intraperitoneal peptide injection. Blood was collected and serum insulin levels was determined by radioimmunoassay, using anti-human antibodies. The gastrocnemius muscles from both legs were excised, immediately frozen in liquid nitrogen, and then stored at −80° C.
(§2) Immunoblot analysis of insulin signaling molecules were performed using muscle homogenates prepared in a homogenization buffer that contained 20 mmol/l HEPES, 8 mmol/l EDTA, 0.2 mmol/l Na3VO4, 10 mmol/l Na4P2O7, 2.5 mmol/l, 2 mM phenylmathylsulfonyl fluorid, 160 mmol/l NaF, 2 mmol/l DCA, 1% Triton X-100, 1% protease inhibitor cocktail and 1% phaphatase inhibitor cocktail (Sigma®) pH 7.4. Equal amount of cell lysate were dissolved in Laemmli buffer and subjected to SDS-PAGE gel separation. The separated proteins were transferred to nitrocellulose membranes. […] All protein data were quantified by densitometry. […]
(§3) The extent of phosphorylation of the components of the insulin signaling pathway (signal proteins) in the muscle lysates of the treated and non-treated animals “ ” was investigated. FIG. 6 presents the relative extent of serine phosphorylation of IRS by PKC as determined by immunobloting with a specific antibody. […]

PKB/AKT = assay: Immunoblot of serine phosphorylation of PKB/AKT in muscle lysates; format: in vivo, Psammomys obesus; conditions: treated vs non-treated animal
Method: as §1, §2, §3

[3] = test system: glucose transporter GLUT4 protein; assay: Immunoblot of GLUT4 protein amount in muscle lysates; format: in vivo, Psammomys obesus; conditions: treated vs non-treated animal
Method: as §1, §2, §3

| Substance | hypoglycemic effect (blood glucose) [1] | immunostainable insulin content of the pancreatic beta cells (pancreatic beta cells) | beta cell structure (pancreatic beta cells; hematoxylin-eosin staining) | relative extent of serine phosphorylation of IRS by PKC [2] | relative extent of phosphorylation of serine in PKB/AKT (PKB/AKT) | relative amount of the glucose transporter GLUT4 protein [3] |
| --- | --- | --- | --- | --- | --- | --- |
| myristoyl-Gly-Asn-Leu-Met-Phe-Gln-Ile-Gln-Arg-Ser-Arg-Lys-Phe-amide (Myristoyl-GNLMFQIQRSRKF-NH2; SMILES CCCCCCCCCCCCCC(=O)NCC(=O)N[C@@H](CC(N)=O)C(=O)N[C@@H](CC(C)C)C(=O)N[C@@H](CCSC)C(=O)N[C@@H](Cc1ccccc1)C(=O)N[C@@H](CCC(N)=O)C(=O)N[C@H](C(=O)N[C@@H](CCC(N)=O)C(=O)N[C@@H](CCCNC(=N)N)C(=O)N[C@@H](CO)C(=O)N[C@@H](CCCNC(=N)N)C(=O)N[C@@H](CCCCN)C(=O)N[C@@H](Cc1ccccc1)C(N)=O)[C@@H](C)CC) [peptide 16, myristoylated peptide analog derived from the αD region of PKC-ε] | hypoglycemic effect |  |  |  |  |  |
| myristoyl-Gly-Phe-Gln-Ile-Gln-Arg-Ser-Arg-Lys-Phe-Asn-amide (Myristoyl-GFQIQRSRKFN-NH2; SMILES CCCCCCCCCCCCCC(=O)NCC(=O)N[C@@H](Cc1ccccc1)C(=O)N[C@@H](CCC(N)=O)C(=O)N[C@H](C(=O)N[C@@H](CCC(N)=O)C(=O)N[C@@H](CCCNC(=N)N)C(=O)N[C@@H](CO)C(=O)N[C@@H](CCCNC(=N)N)C(=O)N[C@@H](CCCCN)C(=O)N[C@@H](Cc1ccccc1)C(=O)N[C@@H](CC(N)=O)C(N)=O)[C@@H](C)CC) [peptide 12, myristoylated peptide analog derived from the αD region of PKC-ε] | hypoglycemic effect | replenished | markedly improved | much lower | reduced | elevated |
| myristoyl-Gly-Met-Ala-(D)Lys-Gln-Pro-Pro-Phe-amide (Myristoyl-GMA[dK]QPPF-NH2; SMILES CCCCCCCCCCCCCC(=O)NCC(=O)N[C@@H](CCSC)C(=O)N[C@@H](C)C(=O)N[C@H](CCCCN)C(=O)N[C@@H](CCC(N)=O)C(=O)N1CCC[C@H]1C(=O)N1CCC[C@H]1C(=O)N[C@@H](Cc1ccccc1)C(N)=O) [peptide 7, myristoylated peptide analog derived from the HJ region of PKC-ε] | hypoglycemic effect |  |  |  |  |  |

Source: patent US8575307B2, “Protein kinase C inhibitors for prevention of insulin resistance and type 2 diabetes” (Hadasit Medical Research Services & Development Ltd., priority 2005, dated 2013)
